{
  "source": "PubChem BioAssay (NCI)",
  "assay_in_all_cases": "NCI tumour cell line growth inhibition, 48 h",
  "key": {"SNB-19 CNS": {"system": "SNB-19 CNS"}, "SF-295 CNS": {"system": "SF-295 CNS"}, "NCI-H23 lung": {"system": "NCI-H23 lung"}, "OVCAR-3 ovarian": {"system": "OVCAR-3 ovarian"}, "MDA-MB-231 breast": {"system": "MDA-MB-231 breast"}, "HCT-116 colon": {"system": "HCT-116 colon"}, "A549 NSCLC": {"system": "A549 NSCLC"}, "SK-MEL-28 melanoma": {"system": "SK-MEL-28 melanoma"}, "IGROV1 ovarian": {"system": "IGROV1 ovarian"}, "HS 578T breast": {"system": "HS 578T breast"}, "OVCAR-8 ovarian": {"system": "OVCAR-8 ovarian"}, "HOP-92 NSCLC": {"system": "HOP-92 NSCLC"}, "COLO 205 colon": {"system": "COLO 205 colon"}, "CCRF-CEM leukemia": {"system": "CCRF-CEM leukemia"}, "UACC-62 melanoma": {"system": "UACC-62 melanoma"}, "LOX IMVI melanoma": {"system": "LOX IMVI melanoma"}, "HL-60(TB) leukemia": {"system": "HL-60(TB) leukemia"}, "HT29 colon": {"system": "HT29 colon"}, "PC-3 prostate": {"system": "PC-3 prostate"}, "MDA-MB-435": {"system": "MDA-MB-435"}, "MCF7 breast": {"system": "MCF7 breast"}, "SK-MEL-2 melanoma": {"system": "SK-MEL-2 melanoma"}, "UO-31 renal": {"system": "UO-31 renal"}, "MDA-N": {"system": "MDA-N"}, "MOLT-4 leukemia": {"system": "MOLT-4 leukemia"}, "SK-MEL-5 melanoma": {"system": "SK-MEL-5 melanoma"}, "K-562 leukemia": {"system": "K-562 leukemia"}, "NCI-H522 lung": {"system": "NCI-H522 lung"}, "ACHN renal": {"system": "ACHN renal"}, "OVCAR-5 ovarian": {"system": "OVCAR-5 ovarian"}, "UACC-257 melanoma": {"system": "UACC-257 melanoma"}, "NCI-H460 lung": {"system": "NCI-H460 lung"}, "SK-OV-3 ovarian": {"system": "SK-OV-3 ovarian"}, "BT-549 breast": {"system": "BT-549 breast"}, "SW-620 colon": {"system": "SW-620 colon"}, "TK-10 renal": {"system": "TK-10 renal"}, "786-0 renal": {"system": "786-0 renal"}, "KM12 colon": {"system": "KM12 colon"}, "OVCAR-4 ovarian": {"system": "OVCAR-4 ovarian"}, "NCI/ADR-RES ovarian": {"system": "NCI/ADR-RES ovarian"}, "CAKI-1 renal": {"system": "CAKI-1 renal"}, "MALME-3M melanoma": {"system": "MALME-3M melanoma"}, "T-47D breast": {"system": "T-47D breast"}, "HOP-62 NSCLC": {"system": "HOP-62 NSCLC"}, "RXF 393 renal": {"system": "RXF 393 renal"}, "DU-145 prostate": {"system": "DU-145 prostate"}, "SR leukemia": {"system": "SR leukemia"}, "NCI-H226 lung": {"system": "NCI-H226 lung"}, "SN12C renal": {"system": "SN12C renal"}, "HCT-15 colon": {"system": "HCT-15 colon"}, "M14 melanoma": {"system": "M14 melanoma"}, "U251 CNS": {"system": "U251 CNS"}, "SNB-75 CNS": {"system": "SNB-75 CNS"}, "SF-539 CNS": {"system": "SF-539 CNS"}, "SF-268 CNS": {"system": "SF-268 CNS"}},
  "note": "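Interpolation was linear, between the two tested concentrations surrounding the appropriate level; five concentrations were tested over 48 hours in 96-well plates. TGI: concentration producing complete growth inhibition.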",
  "data": [
    {"smiles": "COc1ccc(Nc2nn3c(=O)c4c(C)c(C)sc4nc3s2)cc1", "values": [
      {"measurement": "TGI", "setting": "SNB-19 CNS", "value": "> 100", "unit": "µM"},
      {"measurement": "TGI", "setting": "SF-295 CNS", "value": "> 100", "unit": "µM"},
      {"measurement": "TGI", "setting": "NCI-H23 lung", "value": 46.9, "unit": "µM"},
      {"measurement": "TGI", "setting": "OVCAR-3 ovarian", "value": 78.8, "unit": "µM"},
      {"measurement": "TGI", "setting": "MDA-MB-231 breast", "value": "> 100", "unit": "µM"},
      {"measurement": "TGI", "setting": "HCT-116 colon", "value": 60.5, "unit": "µM"},
      {"measurement": "TGI", "setting": "A549 NSCLC", "value": 38.5, "unit": "µM"},
      {"measurement": "TGI", "setting": "SK-MEL-28 melanoma", "value": "> 100", "unit": "µM"},
      {"measurement": "TGI", "setting": "IGROV1 ovarian", "value": "> 100", "unit": "µM"},
      {"measurement": "TGI", "setting": "HS 578T breast", "value": "> 100", "unit": "µM"},
      {"measurement": "TGI", "setting": "OVCAR-8 ovarian", "value": "> 100", "unit": "µM"},
      {"measurement": "TGI", "setting": "HOP-92 NSCLC", "value": 69.2, "unit": "µM"},
      {"measurement": "TGI", "setting": "COLO 205 colon", "value": "> 100", "unit": "µM"},
      {"measurement": "TGI", "setting": "CCRF-CEM leukemia", "value": "> 100", "unit": "µM"},
      {"measurement": "TGI", "setting": "UACC-62 melanoma", "value": "> 100", "unit": "µM"},
      {"measurement": "TGI", "setting": "LOX IMVI melanoma", "value": "> 100", "unit": "µM"},
      {"measurement": "TGI", "setting": "HL-60(TB) leukemia", "value": "> 100", "unit": "µM"},
      {"measurement": "TGI", "setting": "HT29 colon", "value": "> 100", "unit": "µM"},
      {"measurement": "TGI", "setting": "PC-3 prostate", "value": "> 100", "unit": "µM"},
      {"measurement": "TGI", "setting": "MDA-MB-435", "value": "> 100", "unit": "µM"},
      {"measurement": "TGI", "setting": "MCF7 breast", "value": "> 100", "unit": "µM"},
      {"measurement": "TGI", "setting": "SK-MEL-2 melanoma", "value": "> 100", "unit": "µM"},
      {"measurement": "TGI", "setting": "UO-31 renal", "value": 35.3, "unit": "µM"},
      {"measurement": "TGI", "setting": "MDA-N", "value": "> 100", "unit": "µM"},
      {"measurement": "TGI", "setting": "MOLT-4 leukemia", "value": "> 100", "unit": "µM"},
      {"measurement": "TGI", "setting": "SK-MEL-5 melanoma", "value": "> 100", "unit": "µM"},
      {"measurement": "TGI", "setting": "K-562 leukemia", "value": "> 100", "unit": "µM"},
      {"measurement": "TGI", "setting": "NCI-H522 lung", "value": 67.1, "unit": "µM"},
      {"measurement": "TGI", "setting": "ACHN renal", "value": "> 100", "unit": "µM"},
      {"measurement": "TGI", "setting": "OVCAR-5 ovarian", "value": "> 100", "unit": "µM"},
      {"measurement": "TGI", "setting": "UACC-257 melanoma", "value": "> 100", "unit": "µM"},
      {"measurement": "TGI", "setting": "NCI-H460 lung", "value": "> 100", "unit": "µM"},
      {"measurement": "TGI", "setting": "SK-OV-3 ovarian", "value": "> 100", "unit": "µM"},
      {"measurement": "TGI", "setting": "BT-549 breast", "value": "> 100", "unit": "µM"},
      {"measurement": "TGI", "setting": "SW-620 colon", "value": "> 100", "unit": "µM"},
      {"measurement": "TGI", "setting": "TK-10 renal", "value": 78.8, "unit": "µM"},
      {"measurement": "TGI", "setting": "786-0 renal", "value": 51, "unit": "µM"},
      {"measurement": "TGI", "setting": "KM12 colon", "value": "> 100", "unit": "µM"},
      {"measurement": "TGI", "setting": "OVCAR-4 ovarian", "value": 48.3, "unit": "µM"},
      {"measurement": "TGI", "setting": "NCI/ADR-RES ovarian", "value": "> 100", "unit": "µM"},
      {"measurement": "TGI", "setting": "CAKI-1 renal", "value": "> 100", "unit": "µM"},
      {"measurement": "TGI", "setting": "MALME-3M melanoma", "value": 89, "unit": "µM"},
      {"measurement": "TGI", "setting": "T-47D breast", "value": 63.5, "unit": "µM"},
      {"measurement": "TGI", "setting": "HOP-62 NSCLC", "value": 76.8, "unit": "µM"},
      {"measurement": "TGI", "setting": "RXF 393 renal", "value": 36.7, "unit": "µM"},
      {"measurement": "TGI", "setting": "DU-145 prostate", "value": 34.5, "unit": "µM"},
      {"measurement": "TGI", "setting": "SR leukemia", "value": "> 100", "unit": "µM"},
      {"measurement": "TGI", "setting": "NCI-H226 lung", "value": "> 100", "unit": "µM"},
      {"measurement": "TGI", "setting": "SN12C renal", "value": "> 100", "unit": "µM"},
      {"measurement": "TGI", "setting": "HCT-15 colon", "value": "> 100", "unit": "µM"},
      {"measurement": "TGI", "setting": "M14 melanoma", "value": "> 100", "unit": "µM"},
      {"measurement": "TGI", "setting": "U251 CNS", "value": "> 100", "unit": "µM"},
      {"measurement": "TGI", "setting": "SNB-75 CNS", "value": 49.8, "unit": "µM"},
      {"measurement": "TGI", "setting": "SF-539 CNS", "value": "> 100", "unit": "µM"},
      {"measurement": "TGI", "setting": "SF-268 CNS", "value": "> 100", "unit": "µM"}
    ]}
  ]
}
